In patent EP4810052A2, “HCRHR2 SELECTIVE POLYPEPTIDES” (Gubra A/S, priority 2023, dated 2026):
Read-outs that look alike come from different tables or passages of the source. Starred links: 1 amine or outer side, 2 acyl side, 3 side chain; linkers in the order of their positions; H or OH if unused. Non-standard residues stand in square brackets, D forms with d. Residues, ends and D or L forms follow the SMILES beside them. Groups on a side chain read outwards from the residue. *: point of attachment. C20 diacid = O=C(O)CCCCCCCCCCCCCCCCCCC(=O)*; Pro(cis-4-F) = O=C(O)[C@@H]1C[C@H](F)CN1; γGlu = O=C(O)[C@H](CCC(=O)[*:2])N[*:1]; NMeI = CC[C@H](C)[C@H](NC)C(=O)O; Nle = CCCC[C@H](N)C(=O)O; Ac5c = NC1(C(=O)O)CCCC1; AEEA = NCCOCCOCC(=O)O; Aib = CC(C)(N)C(=O)O

Assays:
hCRHR1 = biological target: T1, hCRHR1 (Homo sapiens, UniProt P34998); assay: HTRF cAMP assay, determination of hCRHR1 potency (peptide libraries 5 conc., purified peptides 11 conc.); type: cell-based
T1 sequence (P34998 24-415): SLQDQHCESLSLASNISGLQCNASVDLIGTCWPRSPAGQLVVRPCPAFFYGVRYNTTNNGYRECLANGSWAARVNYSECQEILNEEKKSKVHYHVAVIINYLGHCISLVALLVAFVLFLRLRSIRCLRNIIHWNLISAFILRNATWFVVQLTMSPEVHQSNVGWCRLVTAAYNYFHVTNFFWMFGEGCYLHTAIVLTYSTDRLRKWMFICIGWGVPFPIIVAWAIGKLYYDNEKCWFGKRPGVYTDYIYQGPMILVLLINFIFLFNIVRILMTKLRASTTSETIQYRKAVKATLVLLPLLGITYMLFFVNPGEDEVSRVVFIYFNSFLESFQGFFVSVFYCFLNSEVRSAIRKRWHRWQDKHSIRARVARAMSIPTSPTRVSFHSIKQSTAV
How it was run: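 CHO-K1 cells stably expressing human CRHR1, thawed from frozen stocks just before use, were stimulated in suspension with agonist peptides. cAMP was measured by HTRF competitive immunoassay (cryptate anti-cAMP antibody vs d2-cAMP).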

hCRHR2 = biological target: T2, hCRHR2 (Homo sapiens, UniProt Q13324); assay: HTRF cAMP assay, determination of hCRHR2 potency (peptide libraries 5 conc., purified peptides 11 conc.); type: cell-based
T2 sequence (Q13324 1-411): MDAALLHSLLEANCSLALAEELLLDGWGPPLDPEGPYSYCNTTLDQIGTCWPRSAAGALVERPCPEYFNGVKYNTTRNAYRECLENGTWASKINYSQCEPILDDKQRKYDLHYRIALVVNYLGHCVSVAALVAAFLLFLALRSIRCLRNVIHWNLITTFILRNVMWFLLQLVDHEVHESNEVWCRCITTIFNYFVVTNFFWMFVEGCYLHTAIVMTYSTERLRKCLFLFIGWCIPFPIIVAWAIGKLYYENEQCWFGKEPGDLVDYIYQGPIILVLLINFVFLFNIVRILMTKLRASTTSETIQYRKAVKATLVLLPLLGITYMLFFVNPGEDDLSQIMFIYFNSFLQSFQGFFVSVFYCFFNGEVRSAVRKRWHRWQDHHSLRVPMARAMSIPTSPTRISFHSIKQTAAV
How it was run: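 CHO-K1 cells stably expressing human CRHR2, thawed from frozen stocks just before use and run in suspension; cAMP measured by competitive HTRF immunoassay (cryptate anti-cAMP, d2-cAMP). Agonist peptides tested at 5 (libraries) or 11 (purified) concentrations; EC50 from sigmoid variable-slope nonlinear regression.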

[1] = Table 3, matched molecular pairs X^38 L vs Nle, peptide library of Example 4, read-out: hCRHR1 pEC50 (converted)
[2] = Table 3, matched molecular pairs X^38 L vs Nle, peptide library of Example 4, read-out: hCRHR2 pEC50 (converted)
[3] = Table 4, library peptides having X^38 = Nle, read-out: hCRHR1 pEC50 (converted)
[4] = Table 4, library peptides having X^38 = Nle, read-out: hCRHR2 pEC50 (converted)

CC[C@H](C)[C@H](N)C(=O)N[C@H](C(=O)N[C@@H](CC(C)C)C(=O)N[C@@H](CO)C(=O)N[C@@H](CC(C)C)C(=O)N[C@@H](CC(=O)O)C(=O)N[C@H](C(=O)N1CCC[C@H]1C(=O)N[C@H](C(=O)NCC(=O)N[C@@H](CC(C)C)C(=O)N[C@@H](CC(C)C)C(=O)N[C@@H](CCC(N)=O)C(=O)N[C@H](C(=O)N[C@@H](CC(C)C)C(=O)N[C@@H](CC(C)C)C(=O)N[C@@H](CCC(=O)O)C(=O)N[C@@H](CCC(N)=O)C(=O)N[C@@H](C)C(=O)N[C@@H](CCCNC(=N)N)C(=O)N[C@@H](C)C(=O)N[C@@H](CCCNC(=N)N)C(=O)N[C@@H](CCC(N)=O)C(=O)N[C@@H](C)C(=O)N[C@@H](CCCNC(=N)N)C(=O)N[C@@H](CCC(=O)O)C(=O)N[C@@H](CCC(N)=O)C(=O)N[C@@H](C)C(=O)N[C@@H](CCCCNC(=O)COCCOCCNC(=O)COCCOCCNC(=O)CC[C@H](NC(=O)CC[C@H](NC(=O)CCCCCCCCCCCCCCCCCCC(=O)O)C(=O)O)C(=O)O)C(=O)N[C@H](C(=O)N[C@@H](CC(N)=O)C(=O)N[C@@H](C)C(=O)N[C@@H](CCC(=O)O)C(=O)N[C@H](C(=O)N[C@@H](CC(C)C)C(=O)N[C@@H](C)C(=O)N[C@@H](CCC(=O)O)C(=O)N[C@H](C(N)=O)[C@@H](C)CC)[C@@H](C)CC)[C@@H](C)O)[C@@H](C)CC)[C@@H](C)CC)C(C)C)C(C)C [SEQ ID NO: 29] (H-IVLSLDVPIGLLQILLEQARARQAREQAK([AEEA-AEEA-γGlu-γGlu-C20 diacid])TNAEILAEI-NH2)
EC50 (hCRHR1; [1]): 39800 nM | EC50 (hCRHR2; [2]): 0.251 nM

CCCC[C@H](NC(=O)[C@@H](NC(=O)[C@H](CCC(=O)O)NC(=O)[C@H](C)NC(=O)[C@H](CC(N)=O)NC(=O)[C@@H](NC(=O)[C@H](CCCCNC(=O)COCCOCCNC(=O)COCCOCCNC(=O)CC[C@H](NC(=O)CC[C@H](NC(=O)CCCCCCCCCCCCCCCCCCC(=O)O)C(=O)O)C(=O)O)NC(=O)[C@H](C)NC(=O)[C@H](CCC(N)=O)NC(=O)[C@H](CCC(=O)O)NC(=O)[C@H](CCCNC(=N)N)NC(=O)[C@H](CCC(N)=O)NC(=O)[C@H](C)NC(=O)[C@H](CCC(N)=O)NC(=O)[C@H](C)NC(=O)[C@H](CCCNC(=N)N)NC(=O)[C@H](C)NC(=O)[C@H](CCC(N)=O)NC(=O)[C@H](CCC(=O)O)NC(=O)[C@H](CC(C)C)NC(=O)[C@H](CC(C)C)NC(=O)[C@@H](NC(=O)[C@H](CCC(N)=O)NC(=O)[C@H](CC(C)C)NC(=O)[C@H](CC(C)C)NC(=O)CNC(=O)[C@@H](NC(=O)[C@@H]1CCCN1C(=O)[C@@H](NC(=O)[C@H](CC(=O)O)NC(=O)[C@H](CC(C)C)NC(=O)[C@H](CO)NC(=O)[C@H](CC(C)C)NC(=O)[C@@H](NC(=O)[C@@H](N)[C@@H](C)CC)C(C)C)C(C)C)[C@@H](C)CC)[C@@H](C)CC)[C@@H](C)O)[C@@H](C)CC)C(=O)N[C@@H](C)C(=O)N[C@@H](CCC(=O)O)C(=O)N[C@H](C(N)=O)C(C)C [SEQ ID NO: 32] (H-IVLSLDVPIGLLQILLEQARAQAQREQAK([AEEA-AEEA-γGlu-γGlu-C20 diacid])TNAEI[Nle]AEV-NH2)
EC50 (hCRHR1; [1]): 25.1 nM | EC50 (hCRHR2; [2]): 0.316 nM

CC[C@H](C)[C@H](N)C(=O)N[C@H](C(=O)N[C@@H](CC(C)C)C(=O)N[C@@H](CO)C(=O)N[C@@H](CC(C)C)C(=O)N[C@@H](CC(=O)O)C(=O)NC1(C(=O)N2C[C@@H](F)C[C@H]2C(=O)N[C@H](C(=O)NCC(=O)N[C@@H](CC(C)C)C(=O)N[C@@H](CC(C)C)C(=O)N[C@@H](CCC(N)=O)C(=O)N[C@H](C(=O)N[C@@H](CC(C)C)C(=O)N[C@@H](CC(C)C)C(=O)N[C@@H](CCC(=O)O)C(=O)N[C@@H](CCC(N)=O)C(=O)N[C@@H](C)C(=O)N[C@@H](CCCNC(=N)N)C(=O)N[C@@H](C)C(=O)N[C@@H](CCCNC(=N)N)C(=O)N[C@@H](C)C(=O)N[C@@H](C)C(=O)N[C@@H](CCCNC(=N)N)C(=O)N[C@@H](CCC(=O)O)C(=O)N[C@@H](CCC(N)=O)C(=O)N[C@@H](C)C(=O)N[C@@H](CCCCNC(=O)COCCOCCNC(=O)COCCOCCNC(=O)CC[C@H](NC(=O)CC[C@H](NC(=O)CCCCCCCCCCCCCCCCCCC(=O)O)C(=O)O)C(=O)O)C(=O)N[C@H](C(=O)N[C@@H](CC(N)=O)C(=O)N[C@@H](C)C(=O)N[C@@H](CCC(=O)O)C(=O)N[C@H](C(=O)N[C@@H](CC(C)C)C(=O)N[C@@H](C)C(=O)N[C@@H](CCC(=O)O)C(=O)N[C@H](C(N)=O)C(C)C)[C@@H](C)CC)[C@@H](C)O)[C@@H](C)CC)[C@@H](C)CC)CCCC1)C(C)C [compound 86] (H-IVLSLD[Ac5c][Pro(cis-4-F)]IGLLQILLEQARARAAREQAK([AEEA-AEEA-γGlu-γGlu-C20 diacid])TNAEILAEV-NH2)
EC50 (hCRHR1; library peptides, matched molecular pairs L vs Nle in position X^38, read-out: Potency hCRHR1 pEC50 (converted)): 3.16 nM | EC50 (hCRHR2; library peptides, matched molecular pairs L vs Nle in position X^38, read-out: Potency hCRHR2 pEC50 (converted)): 0.631 nM

CCCC[C@H](NC(=O)[C@@H](NC(=O)[C@H](CCC(=O)O)NC(=O)[C@H](C)NC(=O)[C@H](CC(N)=O)NC(=O)C(C)(C)NC(=O)[C@H](CCCCNC(=O)COCCOCCNC(=O)COCCOCCNC(=O)CC[C@H](NC(=O)CC[C@H](NC(=O)CCCCCCCCCCCCCCCCCCC(=O)O)C(=O)O)C(=O)O)NC(=O)[C@H](C)NC(=O)[C@H](CCC(N)=O)NC(=O)[C@H](CCC(=O)O)NC(=O)[C@H](CCCNC(=N)N)NC(=O)[C@H](C)NC(=O)[C@H](C)NC(=O)[C@H](CCCNC(=N)N)NC(=O)[C@H](C)NC(=O)[C@H](CCCNC(=N)N)NC(=O)[C@H](C)NC(=O)[C@H](CCC(N)=O)NC(=O)CNC(=O)[C@H](CC(C)C)NC(=O)[C@H](CC(C)C)NC(=O)[C@@H](NC(=O)[C@H](CCC(N)=O)NC(=O)[C@H](CC(C)C)NC(=O)[C@H](CC(C)C)NC(=O)CNC(=O)[C@@H](NC(=O)[C@@H]1CCCN1C(=O)[C@@H](NC(=O)[C@H](CC(=O)O)NC(=O)[C@H](CC(C)C)NC(=O)[C@H](CO)NC(=O)[C@H](CC(C)C)NC(=O)[C@@H](NC(=O)[C@@H](NC)[C@@H](C)CC)C(C)C)C(C)C)[C@@H](C)CC)[C@@H](C)CC)[C@@H](C)CC)C(=O)N[C@@H](C)C(=O)N[C@@H](CCC(=O)O)C(=O)N[C@H](C(N)=O)C(C)C [compound 123] (H-[NMeI]VLSLDVPIGLLQILLGQARARAAREQAK([AEEA-AEEA-γGlu-γGlu-C20 diacid])[Aib]NAEI[Nle]AEV-NH2)
EC50 (hCRHR1; [3]): 794 nM | EC50 (hCRHR2; [4]): 0.00501 nM

CCCC[C@H](NC(=O)[C@@H](NC(=O)[C@H](CCC(=O)O)NC(=O)C(C)(C)NC(=O)[C@H](CC(N)=O)NC(=O)[C@@H](NC(=O)[C@H](CCCCNC(=O)COCCOCCNC(=O)COCCOCCNC(=O)CC[C@H](NC(=O)CC[C@H](NC(=O)CCCCCCCCCCCCCCCCCCC(=O)O)C(=O)O)C(=O)O)NC(=O)[C@H](C)NC(=O)[C@H](CCC(N)=O)NC(=O)[C@H](CCC(=O)O)NC(=O)[C@H](CCCNC(=N)N)NC(=O)[C@H](C)NC(=O)[C@H](C)NC(=O)[C@H](CCCNC(=N)N)NC(=O)[C@H](C)NC(=O)[C@H](CCCNC(=N)N)NC(=O)[C@H](C)NC(=O)[C@H](CCC(N)=O)NC(=O)[C@H](CCC(=O)O)NC(=O)[C@H](CC(C)C)NC(=O)[C@H](CC(C)C)NC(=O)[C@@H](NC(=O)[C@H](CCC(N)=O)NC(=O)[C@H](CC(C)C)NC(=O)[C@H](CC(C)C)NC(=O)CNC(=O)[C@@H](NC(=O)[C@@H]1CCCN1C(=O)[C@@H](NC(=O)[C@H](CC(=O)O)NC(=O)[C@H](CC(C)C)NC(=O)[C@H](CO)NC(=O)[C@H](CC(C)C)NC(=O)[C@@H](NC(=O)[C@@H](NC)[C@@H](C)CC)C(C)C)C(C)C)[C@@H](C)CC)[C@@H](C)CC)[C@@H](C)O)[C@@H](C)CC)C(=O)N[C@@H](C)C(=O)N[C@@H](CCC(=O)O)C(=O)N[C@H](C(N)=O)C(C)C [compound 205] (H-[NMeI]VLSLDVPIGLLQILLEQARARAAREQAK([AEEA-AEEA-γGlu-γGlu-C20 diacid])TN[Aib]EI[Nle]AEV-NH2)
EC50 (hCRHR1; [3]): 1260 nM | EC50 (hCRHR2; [4]): 0.0631 nM | Selectivity hCRHR1 EC50/hCRHR2 EC50 (hCRHR2; Table 4, ratio, or comparison with Ref. 1 (SEQ ID NO: 205) / Ref. 2 (SEQ ID NO: 124)): 20689
